Source: patent publication US4965283A, “Amino acid esters, process for the preparation thereof and use thereof” (Dr. Willmar Schwabe GmbH & Co., priority 1987, dated 1990)
Counter-ions that a name gives are not always drawn. Like-named read-outs stand apart in the source and are kept apart here.

Test system: maximum electroshock spasm (MES), extensor spasm in mice
Assay: MES test (maximum electroshock; inhibition of extensor spasm)
Format: in vivo, male mice (NMRI)
Conditions: oral; for protective action [%] after 1 hr / protective action [%] after 3 hrs / responders at 100 mg/kg / responders at 50 mg/kg / responders at 25 mg/kg: n = 10; for ED 50 values / ED 50 values (estimated values) / ED50: MES test, 1 hour after administration; for ED 50 values (estimated values): * estimated from several tests with different dosages; for responders at 100 mg/kg / responders at 50 mg/kg / ED50 / responders at 25 mg/kg: Mus musculus, po; for ED50: read-out: ED 50 values
Excerpt: For the determination of the anticonvulsive/anti-epileptic activity of the substances according to the present invention the method described by E. A. Swinyard et al., J. Pharmacol. exp. Therapeut. 106, 319-330 (1952) and by L. A. Woodbury et al., Arch. int. Pharmacodyn., 92, 97-107 (1952) was used. To male mice (NMRI) with a body weight of 20-25 g via corneal electrodes, an alternating current of 50 Hz and 50 mA is applied for 0.2 sec. (HSE-shock stimulation apparatus; type 207). The maximum electroshock spasm (MES) consists of a tonic extension of the rear extremities, the clonic twitch and loss of consciousness. The activity criterion is taken as being the inhibition of the extensor spasm by the substances according to the present invention. Before the experiments the mice had free access to feed and water. The test substances were administered orally as suspensions in 0.2% agar by stomach tubes; the control animals received adequate volumes of agar. 1 hour and 3 hours after administration the test for protective action against MES was carried out.
As percentage action the percentage proportion of those animals which in the MES test were protected 100% against the extensor spasm is given. 10 animals were used per test.
The ED 50 values were determined according to Lichtfield and Wilcoxon J. Pharmacol. exp. Therapeut. 96, 99 (1949) in each case with 4 to 5 animal groups each of 8-10 animals per dosage stage.

[1] = 50 mg/kg, 1 hr after administration
[2] = 50 mg/kg, 3 hrs after administration
[3] = 1 h, 100 mg/kg, 1 hr after administration, read-out: protective action [%] after 1 hr
[4] = 3 h, 100 mg/kg, 3 hrs after administration, read-out: protective action [%] after 3 hrs
[5] = 1 h, 50 mg/kg, 1 hr after administration, read-out: protective action [%] after 1 hr
[6] = 3 h, 50 mg/kg, 3 hrs after administration, read-out: protective action [%] after 3 hrs
[7] = 100 mg/kg, 1 hr after administration
[8] = 100 mg/kg, 3 hrs after administration

Compound | ED 50 values (estimated values) [mg/kg] | responders at 100 mg/kg [3] [%] | responders at 100 mg/kg [4] [%] | further results
COC1=CC(=O)OC1C(OC(=O)CNC(C)=O)c1ccccc1Cl (single isomer, unassigned; (+)) [Example 150] | – | – | – | protective action [%] after 1 hr [1]: 100%; protective action [%] after 3 hrs [2]: 100%; ED 50 values: 14.4 mg/kg
COC1=CC(=O)OC1C(OC(=O)[C@H](CCSC)NC(C)=O)c1ccccc1Cl (single isomer, unassigned) [124 A] | 25 to 35 | 100 | 20 | –
COC1=CC(=O)OC1C(OC(=O)CNC(=O)C(C)(C)C)c1ccccc1Cl (single isomer, unassigned; (+)) [Example 152, (+)-threo-5-[2-chlorophenyl-(N-pivaloylglycyloxy)-methyl]-4-methoxy-2(5H)-furanone] | – | – | – | protective action [%] after 1 hr [1]: 100%; protective action [%] after 3 hrs [2]: 90%; ED 50 values: 16.3 mg/kg
COC1=CC(=O)O[C@H]1[C@H](OC(=O)CCCN)c1ccccc1Cl (relative stereo) [Example 113, threo-5-[4-aminobutanoyloxy-(2-chlorophenyl)-methyl]-4-methoxy-2(5H)-furanone hydrobromide] | 25 to 35 | – | – | responders at 50 mg/kg [5]: 100%; responders at 50 mg/kg [6]: 50%
COC1=CC(=O)O[C@H]1[C@H](OC(=O)CN)c1ccccc1 (relative stereo) [Example 105, threo-5-[glycyloxy-(phenyl)-methyl]-4-methoxy-2(5H)-furanone hydrobromide] | – | 70 | 0 | ED50 (1 h): 87.5 mg/kg
COC1=CC(=O)OC1C(OC(=O)[C@H](C)N)c1ccc(Cl)cc1Cl (stereo partly drawn) [Example 133, threo-5-[L-alanyloxy-(2,4-dichlorophenyl)-methyl]-4-methoxy-2(5H)-furanone hydrobromide] | 60 to 70 | 100 | 100 | –
COC1=CC(=O)OC1C(OC(=O)[C@@H]1CCCN1C(=O)OCc1ccccc1)c1cc(Cl)ccc1Cl (single isomer, unassigned) [136 A] | 40 to 50 | – | – | responders at 50 mg/kg [5]: 60%; responders at 50 mg/kg [6]: 50%
COC1=CC(=O)O[C@H]1[C@H](OC(=O)[C@@H]1CCCN1)c1ccccc1Cl [103 B] | – | 50 | 0 | ED50 (1 h): 95 mg/kg
COC1=CC(=O)OC1C(OC(=O)[C@@H](N)c1ccccc1)c1ccccc1Cl (single isomer, unassigned) [117 B] | – | – | – | protective action [%] after 1 hr [1]: 90%; protective action [%] after 3 hrs [2]: 0%; ED 50 values (60 min): 25.3 mg/kg
COC1=CC(=O)O[C@H]1[C@H](OC(=O)CNC(C)=O)c1ccc(Cl)cc1Cl (relative stereo) [Example 132, threo-5-[N-acetylglycyloxy-(2,4-dichlorophenyl)-methyl]-4-methoxy-2(5H)-furanone] | – | 20 | 50 | –
COC1=CC(=O)O[C@H]1[C@H](OC(=O)[C@@H]1CCCN1)c1ccccc1Cl [104 B] | – | – | – | protective action [%] after 1 hr [7]: 60%; protective action [%] after 3 hrs [8]: 0%; ED 50 values (60 min): 105 mg/kg
COC1=CC(=O)OC1C(OC(=O)[C@@H]1CCCN1)c1ccccc1C (single isomer, unassigned) [141 A] | 110 to 120 | 40 | 10 | –
COC1=CC(=O)O[C@H]1[C@H](OC(=O)CN)c1ccccc1Cl (relative stereo) [Example 111, threo-5-[2-chlorophenyl-(glycyloxy)-methyl]-4-methoxy-2(5H)-furanone hydrobromide] | – | – | – | responders at 50 mg/kg [5]: 100%; ED50 (1 h): 24.2 mg/kg; responders at 50 mg/kg [6]: 80%
COC1=CC(=O)OC1C(OC(=O)[C@H](Cc1ccccc1)N=C(C)C)c1ccccc1Cl (single isomer, unassigned) [121 A] | – | – | – | responders at 50 mg/kg [5]: 100%; responders at 50 mg/kg [6]: 90%
COC1=CC(=O)OC1C(OC(=O)[C@@H]1CCCN1)c1ccccc1C(F)(F)F (some centres unmarked) [139 B] | – | 40 | 10 | –
COC1=CC(=O)O[C@H]1[C@H](OC(=O)CCCNC(C)=O)c1ccccc1Cl (relative stereo) [Example 115, threo-5-[4-(N-acetylamino)-butanoyloxy-(2-chlorophenyl)methyl]-4-methoxy-2(5H)-furanone] | 30 to 40 | 100 | 100 | –
COC1=CC(=O)O[C@H]1[C@H](OC(=O)C(C)(C)N)c1ccccc1Cl (relative stereo) [Example 155, threo-5-[2-chlorophenyl-(2-methylalanyloxy)-methyl]-4-methoxy-2(5H)-furanone-hydrobromide] | 20 to 30 | – | – | responders at 25 mg/kg (1 h, 1 hr after administration, read-out: protective action [%] after 1 hr): 50%; responders at 25 mg/kg (3 h, 3 hrs after administration, read-out: protective action [%] after 3 hrs): 10%
COC1=CC(=O)OC1C(OC(=O)[C@@H]1CCCN1)c1ccccc1F (single isomer, unassigned) [129 B] | 95 to 105 | – | – | protective action [%] after 1 hr [7]: 50%; protective action [%] after 3 hrs [8]: 0%
COC1=CC(=O)OC1C(OC(=O)[C@H](N)c1ccccc1)c1ccccc1Cl (some centres unmarked) [119 B] | – | – | – | responders at 50 mg/kg [5]: 100%; ED50 (1 h): 37.6 mg/kg; responders at 50 mg/kg [6]: 20%
COC1=CC(=O)OC1C(OC(=O)[C@@H]1CCCN1)c1ccc(Cl)cc1Cl (single isomer, unassigned) [135 A] | 65 to 75 | 100 | 100 | –
COC1=CC(=O)OC1C(OC(=O)[C@@H](N)CCC(=O)O)c1ccccc1Cl (single isomer, unassigned) [123 A] | – | – | – | responders at 50 mg/kg [5]: 70%; responders at 50 mg/kg [6]: 20%
COC1=CC(=O)O[C@H]1[C@H](OC(=O)CN)c1ccc(Cl)cc1Cl (relative stereo) [Example 130, threo-5-[2,4-dichlorophenyl-(glycyloxy)-methyl]-4-methoxy-2(5H)-furanone hydrobromide] | 40 to 50 | 100 | 100 | –
COC1=CC(=O)OC1C(OC(=O)[C@@H]1CCCN1)c1cc(Cl)ccc1Cl (single isomer, unassigned) [137 A] | – | – | – | responders at 50 mg/kg [5]: 100%; responders at 50 mg/kg [6]: 100%
COC1=CC(=O)OC1C(OC(=O)[C@@H]1CCCN1C(C)=O)c1ccccc1Cl (single isomer, unassigned) [107 A] | 10 to 15 | 100 | 60 | –
COC1=CC(=O)OC1C(OC(=O)[C@@H]1CCCN1)c1ccccc1 (some centres unmarked) [110 A] | 40 to 50 | 100 | 0 | –
COC1=CC(=O)O[C@@H]1[C@@H](OC(=O)[C@@H]1CCCN1)c1ccccc1Cl [103 A] | – | 100 | 100 | ED50 (1 h): 10.7 mg/kg
COC1=CC(=O)O[C@H]1[C@H](OC(=O)CN)c1ccc(Cl)cc1Cl (relative stereo) [Example 131, threo-5-[2,4-dichlorophenyl-(glycyloxy)-methyl]-4-methoxy-2(5H)-furanone hydrochloride] | – | – | – | ED50 (1 h): 54.5 mg/kg
COC1=CC(=O)OC1C(OC(=O)[C@@H](N)CCC(N)=O)c1ccccc1Cl (single isomer, unassigned) [122 A] | 15 to 20 | – | – | responders at 50 mg/kg [5]: 100%; responders at 50 mg/kg [6]: 100%
